Source: paper PMC4619319, “A potent anti-inflammatory peptide from the salivary glands of horsefly” (Parasites & Vectors, 2015)

Columns and labels:
[1] = Circular dichroism, secondary structural components; type: physicochemical; conditions: CD, 25 °C, average of three scans
Description: CD spectra were collected on a Jasco-810 spectropolarimeter (Jasco, Tokyo, Japan) with a 1-mm path-length cell at 25 °C and 0.2-nm intervals from 190 to 260 nm. Cecropin-TY1 was dissolved in H2O, TFE/water solution, SDS/water solution and LPS/water solution at the concentration of 0.2 mg/mL. The data from three scans were averaged and smoothed using the Jasco-810 software for each spectrum. CD data were expressed as the mean residue ellipticity (θ) in deg.cm^2.dmol^−1.

[2] = LPS neutralization, chromogenic end-point TAL assay; type: biochemical; conditions: LPS 1 μg/mL, 37 °C, 30 min
Description: (§1) Fluorescein isothiocyanate (FITC)-conjugated LPS (1 μg/mL, Sigma-Aldrich, USA) was excited at 480 nm and monitored the changes in the emission of FITC-LPS at 515 nm in the incubation of different concentrations of peptides (0, 12.5, 25, 50, 100 μg/mL). Peptides were dissolved in 10 mM phosphate buffer at pH 6.0. The interactions between peptides and LPS were further assessed by a quantitative Chromogenic End-point Tachypleus amebocyte lysate (TAL) assay kit (Xiamen Houshiji, China) following the kit instruction. Briefly, different concentrations of peptides (0, 12.5, 25, 50, 100 μg/mL) were incubated with LPS (1 μg/mL, Sigma-Aldrich, USA) at 37 °C for 30 min. After incubation, 100 μL TAL solution was added to 100 μL LPS-peptide mixtures in a pyrogen-free tube and incubated at 37 °C for 10 min. Then, LPS-peptide mixtures were added with pre-warmed substrate solution for additional 6-min incubation at 37 °C. Lastly, the absorbance at 545 nm was measured on a microplate reader (Epoch Etock, BioTek, USA). The percentages of LPS-neutralizing activity were calculated.

TNF-α transcription = assay: LPS-stimulated TNF-α transcription in peritoneal macrophages (qPCR); type: cell-based, mouse; conditions: 20 μg/mL peptide, 100 ng/mL LPS, 6 h
Description: (§2) qPCR was performed using SYBR green master mix (Takara, Japan) on a Realplex Mastercycler real-time PCR system (Eppendorf, Germany) according to the manufacturer’s instruction. The gene transcription levels were normalized to GAPDH or β-actinas as illustrated in figure legends and calculated by ΔΔCt method. The accuracy of qPCR results were checked by melting curve analysis. qPCR primers were listed in Additional file 1: Table S1.
(§3) Cells were incubated with peptides (0, 5, 10, and 20 μg/mL) with or without 100 ng/mL LPS (from E. coli 0111:B4, Sigma-Aldrich, USA) for 6 h. After treatment, culture medium was collected for TNF-α, IL-1β and IL-6 quantification using enzyme-linked immunosorbent assay (ELISA) kits (Dakewei, China). Cells were washed with ice-cold PBS and lysed by Trizol reagent (Life Tech, USA). Total RNA was extracted for cDNA synthesis to quantify TNF-α, IL-1β and IL-6 transcription levels by qPCR as described in qPCR section.

IL-6 transcription = assay: LPS-stimulated IL-6 transcription in peritoneal macrophages (qPCR); type: cell-based, mouse; conditions: 20 μg/mL peptide, 100 ng/mL LPS, 6 h
Description: as §2, §3

[3] = cited from earlier work
Description: Supplement 13071_2015_1149_MOESM1_ESM.docx, table 2: Table S2. Primary structural and biochemical characteristics of cecropin-TY1. | column: […]-NH2 39 +5 3970.22 Da 3970.66 Da 11.17

[4] = Dissociation of FITC-conjugated LPS aggregates (fluorescence); type: binding; conditions: FITC-LPS 1 μg/mL, 10 mM phosphate buffer pH 6.0, ex 480 nm / em 515 nm
Description: as §1

[5] = LPS 50 ng/mL in water, peptide 0.2 mg/mL
[6] = LPS 100 ng/mL in water, peptide 0.2 mg/mL
[7] = LPS 200 ng/mL in water, peptide 0.2 mg/mL
[8] = LPS 400 ng/mL in water, peptide 0.2 mg/mL
[9] = SDS 5 mM in water, peptide 0.2 mg/mL
[10] = SDS 10 mM in water, peptide 0.2 mg/mL
[11] = SDS 20 mM in water, peptide 0.2 mg/mL
[12] = SDS 40 mM in water, peptide 0.2 mg/mL

GWLKKIGKKIERVGQNVRNAAISTLPIAQGAAGVAGALN-NH2 [cecropin-TY1, cecropin antimicrobial peptide from salivary glands of horsefly Tabanus yao, 39 residues, C-terminally amidated, synthesized]
Beta (%) ([1]; H2O, peptide 0.2 mg/mL): 0.0% | Helix (%) ([1]; H2O, peptide 0.2 mg/mL): 0.0% | Random (%) ([1]; H2O, peptide 0.2 mg/mL): 71.1% | Turn (%) ([1]; H2O, peptide 0.2 mg/mL): 28.9% | Beta (%) [1, 5]: 32.4% | Helix (%) [1, 5]: 0.0% | Random (%) [1, 5]: 55.2% | Turn (%) [1, 5]: 12.4% | Beta (%) [1, 6]: 46.6% | Helix (%) [1, 6]: 2.9% | Random (%) [1, 6]: 47.4% | Turn (%) [1, 6]: 3.1% | Beta (%) [1, 7]: 44.5% | Helix (%) [1, 7]: 12.7% | Random (%) [1, 7]: 41.1% | Turn (%) [1, 7]: 1.7% | Beta (%) [1, 8]: 47.8% | Helix (%) [1, 8]: 14.8% | Random (%) [1, 8]: 37.2% | Turn (%) [1, 8]: 0.1% | Beta (%) [1, 9]: 17.5% | Helix (%) [1, 9]: 45.3% | Random (%) [1, 9]: 37.2% | Turn (%) [1, 9]: 0.0% | Beta (%) [1, 10]: 22.7% | Helix (%) [1, 10]: 41.2% | Random (%) [1, 10]: 36.1% | Turn (%) [1, 10]: 0.0% | Beta (%) [1, 11]: 13.4% | Helix (%) [1, 11]: 46.6% | Random (%) [1, 11]: 40.0% | Turn (%) [1, 11]: 0.0% | Beta (%) [1, 12]: 7.4% | Helix (%) [1, 12]: 54.4% | Random (%) [1, 12]: 38.2% | Turn (%) [1, 12]: 0.0% | Beta (%) ([1]; TFE/H2O 3:7, peptide 0.2 mg/mL): 28.7% | Helix (%) ([1]; TFE/H2O 3:7, peptide 0.2 mg/mL): 28.4% | Random (%) ([1]; TFE/H2O 3:7, peptide 0.2 mg/mL): 42.8% | Turn (%) ([1]; TFE/H2O 3:7, peptide 0.2 mg/mL): 0.0% | Beta (%) ([1]; TFE/H2O 5:5, peptide 0.2 mg/mL): 22.4% | Helix (%) ([1]; TFE/H2O 5:5, peptide 0.2 mg/mL): 36.9% | Random (%) ([1]; TFE/H2O 5:5, peptide 0.2 mg/mL): 40.7% | Turn (%) ([1]; TFE/H2O 5:5, peptide 0.2 mg/mL): 0.0% | Beta (%) ([1]; TFE/H2O 7:3, peptide 0.2 mg/mL): 22.4% | Helix (%) ([1]; TFE/H2O 7:3, peptide 0.2 mg/mL): 37.8% | Random (%) ([1]; TFE/H2O 7:3, peptide 0.2 mg/mL): 39.9% | Turn (%) ([1]; TFE/H2O 7:3, peptide 0.2 mg/mL): 0.0% | Beta (%) ([1]; TFE/H2O 9:1, peptide 0.2 mg/mL): 15.0% | Helix (%) ([1]; TFE/H2O 9:1, peptide 0.2 mg/mL): 45.1% | Random (%) ([1]; TFE/H2O 9:1, peptide 0.2 mg/mL): 39.9% | Turn (%) ([1]; TFE/H2O 9:1, peptide 0.2 mg/mL): 0.0% | LPS neutralized ([2]; 12.5 μg/mL peptide): 28.8% | LPS neutralized ([2]; 25 μg/mL peptide): 41.3% | LPS neutralized ([2]; 50 μg/mL peptide): 47.9% | LPS neutralized ([2]; 100 μg/mL peptide): 65.1% | attenuation of LPS-stimulated TNF-α transcription (TNF-α transcription): 60.3% | attenuation of LPS-stimulated IL-6 transcription (IL-6 transcription): 94.1% | Net charges [3]: 5 | Theoretical pI ([3]; theoretical): 11.17 | increase of FITC-LPS fluorescence ([4]; 12.5 μg/mL peptide): 33.4% | increase of FITC-LPS fluorescence ([4]; 25 μg/mL peptide): 46.7% | increase of FITC-LPS fluorescence ([4]; 50 μg/mL peptide): 63.3% | increase of FITC-LPS fluorescence ([4]; 100 μg/mL peptide): 71.6%
